Results published in patent US5466700A (priority 1993, dated 1995).

Experiments:
[1] = test system: seizure activity on the EEG; details: dog, in vivo
[2] = test system: EEG amplitude in anesthetized dogs; details: dog, in vivo

C1CCc2nnnn2CC1 [pentylenetetrazole]
cumulative dose at which seizure activity was observed [1]: 11 to 41 mg/kg | dogs with seizure activity after pentylenetetrazole [1]: Seizure activity was observed in all the dogs | EEG amplitude, left hemisphere (occipital frontal leads) [2]: 35.6 ± 8.0 μV | EEG amplitude, right hemisphere (occipital frontal leads) [2]: 31.5 ± 8.0 μV | increase in EEG amplitude [2]: 344%
